Test results reported in patent US20030059511A1, “Sweetener compositions and uses thereof” (AJINOMOTO CO., INC., priority 1999, published 2003).
Where a SMILES comes first, the peptide text is derived from it.

Test: Equations for calculating sweetness intensity and values calculated from them
Format: in vivo, human
Settings: 20° C., pH 2.8
Description: For example, when preparing a solution having a intensity of sweetness equivalent to that of 10% sucrose, wherein 80% of the 10% of intensity of sweetness is from the sweetener component A and the residual 20% is from the sweetener component B, the sweetness ratio is A:B=8:2. When the sweetening magnification relative to sucrose varies depending on the composition and the concentration of the sweetener component is varied even if it is a same sweetener component (in this case, an exponential curve can be prepared and used for calculation), the objective weight of the sweetener component can be calculated. For example, if the equation for converting sweetness intensity (the exponential curve) component A is Y=aX^b, and the equation for converting sweetness intensity (the exponential curve)of component B is Y=cX^d, the weight ratio of the components A and B in the ratio A:B=8:2, can be determined using the following calculation, where Y is a concentration equivalent to that of sucrose (PSE %), and X is the sweetener component concentration (g/100 ml):
Equations for calculating sweetness intensity in the cola drink (pH 2.8, 20° C.) are as follows, wherein Y denotes the concentration equivalent to that of sucrose (g/100 ml) and X denotes the concentration of the sweetener (g/100 ml), respectively.
With regard to Acesulfame K, the magnification of sweetness intensity was determined according to the following equation for calculating sweetness intensity.
[Y: concentration equivalent to that of sucrose (g/100ml); X: concentration of Acesulfame K (g/100 ml)]
By using the equation for calculating sweetness intensity in the cola drink (refer to Example 4) and the equation for calculating sweetness intensity of Aspartame (refer to the monthly Journal “Food Chemical” August, page 35, 1997), the necessary amounts of those were calculated. In case of Aspartame, the values at 20° C., pH2.8 were used.
The equation for calculating sweetness intensity of derivative 1 in the aqueous solution is as follows.
Where, the calculation of the sweetness was made by using the equation for calculating sweetness intensity of derivative 4 Y=58775X^1.04. When Y=6.3%, X=0.00015 g/100 ml, When Y=5.1%, X=0.00012 g/100 ml.
Examples for equations for calculating sweetness intensity in the cola drink (pH2.8, 20° C.) are as follows, and another equations can be prepared in the same manner, wherein Y denotes the concentration equivalent to that of sucrose (g/100 ml) and X denotes the concentration of the sweetener (g/100 ml), respectively.

Compound | X, concentration of the sweetener when Y=0.5 [g/100 ml] | X, concentration of the sweetener when Y=9 [g/100 ml]
COC(=O)[C@H](Cc1ccccc1)NC(=O)[C@@H](N)CC(=O)O [Aspartame, reference compound] (H-Asp-Phe-OMe) | 0.00072 | 0.04726

Same assay, conditions: calculated; block ice of Example 12

Compound | magnification of the sweetness intensity at PSE 5% [times]
COC(=O)[C@H](Cc1ccccc1)NC(=O)[C@@H](N)CC(=O)O [Aspartame, reference compound] (H-Asp-Phe-OMe) | 130

Same assay, conditions: calculated; sweetener for tabletop use

Compound | magnification of sweetness intensity at PSE 0.5% [times]
COC(=O)[C@H](Cc1ccccc1)NC(=O)[C@@H](N)CC(=O)O [Aspartame, reference compound] (H-Asp-Phe-OMe) | 360
OC[C@@H](O)[C@@H](O)CO [Erythritol, reference compound] | 0.75

Same assay, conditions: cola drink, pH 2.8, 20° C.

Compound | X, concentration of the sweetener when Y=2 [g/100 ml] | X, concentration of the sweetener when Y=5 [g/100 ml] | X, concentration of the sweetener when Y=8 [g/100 ml]
COC(=O)[C@H](Cc1ccccc1)NC(=O)[C@@H](N)CC(=O)O [Aspartame, reference compound] (H-Asp-Phe-OMe) | 0.0053 | 0.0202 | 0.0398

Test: Taste characteristics in a cola drink (9 items, similarity index vs cola drink containing 10% sucrose)
Format: in vivo, human
Settings: non-carbonated cola drink, PSE 10%, vs cola drink with 10% sucrose; smaller = closer to sucrose; 8 panelists
Protocol: The following experiments were performed in the same way as that of Example 2. Instead of aqueous solution, the cola drink of each of derivatives 1 to 9 having a sweetness level equivalent to that of PSE 10% was prepared, and compared with the cola drink containing 10% sucrose. The evaluation method and so on were same as that of Example 2.
When carbon dioxide is blown in the cola drink, the carbonated cola drink is prepared, however, the taste of the cola drink can be compared more easily in that without carbon dioxide. Thus the sensory evaluation of non-carbonated cola drink was performed.
The composition of the cola drink employed was same as that of Example 1.
The similarity indexes were calculated as those of aqueous solutions. The smaller the similarity index becomes, the better the taste balances, and the closer the taste is to the taste characteristics (quality) of sucrose. The total taste becomes preferable. The similarity indexes of each derivatives are shown as follows. […]
The following experiments were conducted in the same way as that of Example 15. Instead of aqueous solution, the cola drink of each of derivatives 1 to 9 having a sweetness level equivalent to that of PSE 10% was prepared, and compared with the cola drink containing 10% sucrose. All of the evaluation method and so on were same as those of Example 15.
When carbon dioxide is blown in the cola drink, the carbonated cola drink is prepared, however, the taste of the cola drink can be compared more easily in that without carbon dioxide. Thus the non-carbonated cola drink was organoleptically evaluated.
The composition of the cola drink employed was same as that of Example 14.
The similarity indexes were calculated as those of aqueous solutions. The smaller the similarity index becomes, the better the taste balances, and the closer the taste is to the taste characteristics (quality)of sucrose. The total taste becomes preferable. The similarity indexes of each of the derivatives are shown as follows. […]

Compound | Similarity index
CC1=CC(=O)[N-]S(=O)(=O)O1.[K+] [Acesulfame K, reference compound] | ~2.0

Test: not given
Settings: reported in JP-A-8-503206 / JP-B-47-31031; cited from earlier work

Compound | sweetness intensity, times that of sucrose by weight [times]
COC(=O)[C@H](Cc1ccccc1)NC(=O)[C@@H](N)CC(=O)O [Aspartame, reference compound] (H-Asp-Phe-OMe) | 200
COC(=O)[C@H](Cc1ccccc1)NC(=O)[C@H](CC(=O)O)NCCC(C)(C)C [Neotame] | 10000

Same assay, conditions: values used for calculation in Example 5; cited from earlier work

Compound | magnification used for the sweetness intensity of the another sweetener with a high intense sweetness [times]
CC1(C)[C@@H](O[C@H]2O[C@H](C(=O)[O-])[C@@H](O)[C@H](O)[C@H]2O[C@@H]2O[C@H](C(=O)O)[C@@H](O)[C@H](O)[C@H]2O)CC[C@]2(C)[C@H]3C(=O)C=C4[C@@H]5C[C@@](C)(C(=O)[O-])CC[C@]5(C)CC[C@@]4(C)[C@]3(C)CC[C@@H]12.[Na+].[Na+] [disodium glycyrrhizinate] | 100
OC[C@H]1O[C@H](O[C@]2(CCl)O[C@H](CCl)[C@@H](O)[C@@H]2O)[C@H](O)[C@@H](O)[C@H]1Cl [suclarose] | 400
O=C1NS(=O)(=O)c2ccccc21.[Na] [Sodium Saccharine] | 190
O=S(=O)([O-])NC1CCCCC1.[Na+] [sodium cyclamate] | 30
C=C1C[C@@]23CC[C@H]4[C@@](C)(CCC[C@@]4(C)C(=O)O[C@@H]4O[C@H](CO)[C@@H](O)[C@H](O)[C@H]4O)[C@@H]2CC[C@]1(O[C@@H]1O[C@H](CO)[C@@H](O)[C@H](O)[C@H]1O[C@@H]1O[C@H](CO)[C@@H](O)[C@H](O)[C@H]1O)C3 [Stevioside] | 140
C[C@@H](NC(=O)[C@@H](N)CC(=O)O)C(=O)NC1C(C)(C)SC1(C)C [Alitame] | 2000
Thaumatin | 850
O=C1NS(=O)(=O)c2ccccc21 [Saccharine] | 190

Same assay, conditions: values used for calculation in Example 17; sucrose = 1; cited from earlier work

Compound | magnification of sweetness intensity (numerical values in brackets)
OC[C@H]1O[C@H](O[C@H]2O[C@H](CO)[C@@H](O)[C@H](O)[C@H]2O)[C@H](O)[C@@H](O)[C@@H]1O [trehalose] | 0.45
O=C[C@H](O)[C@@H](O)[C@H](O)CO [D-xylose] | 0.4
OC[C@H]1O[C@@H](O[C@H]2[C@H](O)[C@@H](O)C(O)O[C@@H]2CO)[C@H](O)[C@@H](O)[C@H]1O (stereo partly drawn) [lactose] | 0.2
OC[C@@H](O)[C@H](O)[C@@H](O)CO [xylitol] | 1
OC[C@@H](O)[C@@H](O)[C@H](O)[C@@H](O)CO [sorbitol] | 0.75
OC[C@H]1O[C@H](OC[C@H]2OC(O)(CO)[C@@H](O)[C@@H]2O)[C@H](O)[C@@H](O)[C@@H]1O (stereo partly drawn) [paratinose] | 0.4
O=C(CO)[C@@H](O)[C@H](O)[C@H](O)CO [fructose] | 1.4
isomerized lactose | 0.6
OC[C@@H](O)[C@@H](O[C@@H]1O[C@H](CO)[C@H](O)[C@H](O)[C@H]1O)[C@H](O)[C@@H](O)CO [lactitol] | 0.35
OC[C@@H](O)[C@@H](O)[C@H](O)[C@H](O)CO [mannitol] | 0.6
OC[C@H]1O[C@H](O[C@H]2[C@H](O)[C@@H](O)[C@H](O)O[C@@H]2CO)[C@H](O)[C@@H](O)[C@@H]1O [malt sugar] | 0.3
OC[C@@H](O)[C@@H](O[C@H]1O[C@H](CO)[C@@H](O)[C@H](O)[C@H]1O)[C@H](O)[C@@H](O)CO [maltitol] | 0.75
OC[C@@H](O)[C@@H](O)CO [Erythritol, reference compound] | 0.75
paratinit | 0.45
